Measured values reported in patent publication US20250313563A1, “GLYCOGEN SYNTHASE KINASE 3 INHIBITORS AND USES THEREOF” (The Broad Institute, Inc., priority 2022, published 2025).
Read-outs that look alike come from different tables or passages of the source.

What was measured:
[1] = biological target: GSK3b (GST-full length GSK3b) (Homo sapiens (Human), UniProt P49841); test: GSK3b TR-FRET kinase assay; format: biochemical
In short: (§1)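 In this time-resolved FRET format, kinase reactions contained 200 nM biotinylated, S645-phosphorylated glycogen synthase 631-650 peptide and either isoform-specific ATP (2 μM GSK3b, 4 μM GSK3α) or 1 mM ATP. They were quenched with EDTA after 100 min at ambient temperature. Inhibition curves gave IC50 values.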

[2] = biological target: GSK3α (GST-full length GSK3α) (Homo sapiens (Human), UniProt P49840); test: GSK3α TR-FRET kinase assay; format: biochemical
Chain of GSK3α (GST-full length GSK3α) (P49840 whole entry): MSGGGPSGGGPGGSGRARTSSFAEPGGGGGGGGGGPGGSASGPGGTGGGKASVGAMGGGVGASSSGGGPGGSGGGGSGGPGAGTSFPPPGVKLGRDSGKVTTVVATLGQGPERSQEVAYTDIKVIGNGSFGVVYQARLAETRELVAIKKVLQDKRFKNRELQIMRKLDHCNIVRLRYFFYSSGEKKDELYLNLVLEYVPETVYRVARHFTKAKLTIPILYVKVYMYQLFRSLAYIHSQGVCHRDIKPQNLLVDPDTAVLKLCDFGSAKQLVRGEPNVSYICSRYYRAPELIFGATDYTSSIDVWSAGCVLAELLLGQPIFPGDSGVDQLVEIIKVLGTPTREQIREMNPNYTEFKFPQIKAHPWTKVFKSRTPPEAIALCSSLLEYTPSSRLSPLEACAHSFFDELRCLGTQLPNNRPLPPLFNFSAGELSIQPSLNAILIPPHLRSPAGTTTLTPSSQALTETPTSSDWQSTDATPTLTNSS
In short: as §1

[3] = 1 nM GSK3b, 2 μM ATP, 30 minute preincubation, Table 16, read-out: GSK3-B TR-FRET BIOCHEMICAL (TR-FRET)
[4] = GSK3-B (TR-FRET 1 mM ATP), GMean, IC50, 1 mM ATP, geometric mean
[5] = 1 nM GSK3α, 4 μM ATP, 30 minute preincubation, Table 16, read-out: GSK3-A TR-FRET BIOCHEMICAL (TR-FRET)
[6] = GSK3-A (TR-FRET 1 mM ATP), GMean, IC50, 1 mM ATP, geometric mean
[7] = 1 nM GSK3b, 2 μM ATP, 30 minute preincubation, read-out: GSK3-B TR-FRET BIOCHEMICAL (TR-FRET), IC50
[8] = 1 nM GSK3α, 4 μM ATP, 30 minute preincubation, read-out: GSK3-A TR-FRET BIOCHEMICAL (TR-FRET), IC50
[9] = read-out: GSK3-B (TR-FRET 1 mM ATP), GMean, IC50, 1 mM ATP, geometric mean
[10] = read-out: GSK3-A (TR-FRET 1 mM ATP), GMean, IC50, 1 mM ATP, geometric mean

Chain of GSK3b (GST-full length GSK3b) (P49841 whole entry, canonical isoform): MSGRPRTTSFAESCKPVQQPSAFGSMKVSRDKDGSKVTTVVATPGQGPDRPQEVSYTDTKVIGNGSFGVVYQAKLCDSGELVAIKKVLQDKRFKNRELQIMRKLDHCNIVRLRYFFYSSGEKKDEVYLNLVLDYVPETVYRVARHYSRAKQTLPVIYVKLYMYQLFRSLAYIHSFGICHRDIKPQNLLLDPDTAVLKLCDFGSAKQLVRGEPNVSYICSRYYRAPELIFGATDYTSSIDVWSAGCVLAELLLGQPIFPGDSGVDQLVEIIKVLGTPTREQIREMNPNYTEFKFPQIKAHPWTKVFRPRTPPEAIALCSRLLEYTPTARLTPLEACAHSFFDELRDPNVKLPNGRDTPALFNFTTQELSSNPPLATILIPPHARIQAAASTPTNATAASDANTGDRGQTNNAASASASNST

SMILES	IC50 [1, 3] [nM]	IC50 [2, 5] [nM]	further results
CC1(C)CC(=O)C2=C(C1)Nc1n[nH]cc1C21CCN(S(=O)(=O)c2ccccc2C(F)F)CC1 [Compound 945657]	100 to 1000	≤ 100	IC50 [1, 4]: 1000 to 5000 nM; IC50 [2, 6]: 100 to 1000 nM
Cc1cnn(C)c1S(=O)(=O)N1CCC2(CC1)C1=C(CC(C)(C)CC1=O)Nc1n[nH]cc12 [Compound 945658]	1000 to 5000	100 to 1000	
CC(C)c1nc(S(=O)(=O)N2CCC3(CC2)C2=C(CC(C)(C)CC2=O)Nc2n[nH]cc23)cn1C [Compound 945663]	≤ 100	≤ 100	
CC1(C)CC(=O)C2=C(C1)Nc1n[nH]cc1C21CCN(S(=O)(=O)c2ccccc2C(F)(F)F)CC1 [Compound 945667]	100 to 1000	≤ 100	
CC1(C)CC(=O)C2=C(C1)Nc1n[nH]cc1C21CCN(S(=O)(=O)c2ccccc2OC(F)F)CC1 [Compound 945668]			IC50 [1, 7]: ≤ 100 nM; IC50 [1, 4]: 100 to 1000 nM; IC50 [2, 8]: ≤ 100 nM; IC50 [2, 6]: ≤ 100 nM
CCn1ccc(S(=O)(=O)N2CCC3(CC2)C2=C(CC(C)(C)CC2=O)Nc2n[nH]cc23)n1 [Compound 945671]	≤ 100	≤ 100	
CC1(C)CC(=O)C2=C(C1)Nc1n[nH]cc1C21CCN(S(=O)(=O)c2cnn(C(C)(C)C)c2)CC1 [Compound 945677]	100 to 1000	≤ 100	
CCn1nc(C)c(S(=O)(=O)N2CCC3(CC2)C2=C(CC(C)(C)CC2=O)Nc2n[nH]cc23)c1C [Compound 945679]	1000 to 5000	100 to 1000	
CCC1(c2cccc(-c3c(C)cncc3C)c2)C2=C(CC(C)(C)CC2=O)Nc2n[nH]cc21 (stereo not drawn) [Compound 945703]	≤ 100	≤ 100	
CCC1(c2cccc(-c3c(F)cncc3OC)c2)C2=C(CC(C)(C)CC2=O)Nc2n[nH]cc21 (stereo not drawn) [Compound 945704]	≤ 100	≤ 100	IC50 [1, 9]: 100 to 1000 nM; IC50 [2, 10]: ≤ 100 nM
CCC1(c2cccc(C(F)F)c2)C2=C(CC(C)(C)CC2=O)Nc2n[nH]c(C(F)(F)F)c21 (stereo not drawn) [Compound 945710]	≤ 100	≤ 100	IC50 [1, 9]: ≤ 100 nM; IC50 [2, 10]: ≤ 100 nM
Cn1ccc(S(=O)(=O)N2CC[C@]3(C2)C2=C(CC(C)(C)CC2=O)Nc2n[nH]cc23)n1 [Compound 945712]			IC50 [1, 7]: ≤ 100 nM; IC50 [1, 4]: 100 to 1000 nM; IC50 [2, 8]: ≤ 100 nM; IC50 [2, 6]: ≤ 100 nM
CCC1(c2cccc(S(=O)(=O)C3CC3)c2)C2=C(CC(C)(C)CC2=O)Nc2n[nH]c(C(F)(F)F)c21 (stereo not drawn) [Compound 945713]	≤ 100	≤ 100	IC50 [1, 9]: ≤ 100 nM; IC50 [2, 10]: ≤ 100 nM
Cn1ccc(S(=O)(=O)N2CC[C@@]3(C2)C2=C(CC(C)(C)CC2=O)Nc2n[nH]cc23)n1 [Compound 945714]	≤ 100	≤ 100	
CC[C@]1(c2cccc(S(=O)(=O)C3CC3)c2)C2=C(CC(C)(C)CC2=O)Nc2n[nH]c(C(F)(F)F)c21 [Compound 945715]	≤ 100	≤ 100	
CC1(C)CC(=O)C2=C(C1)Nc1n[nH]cc1[C@@]21CCN(S(=O)(=O)c2ccccc2F)C1 [Compound 945719]	≤ 100	≤ 100	
CC[C@]1(c2cccc(-c3ccncc3O)c2)C2=C(CC(C)(C)CC2=O)Nc2n[nH]cc21 [Compound 945724]	≤ 100	≤ 100	IC50 [1, 9]: 1000 to 5000 nM; IC50 [2, 10]: 100 to 1000 nM
CCC1(c2cccc(-c3cncn3C(C)C)c2)C2=C(CC(C)(C)CC2=O)Nc2n[nH]cc21 (stereo not drawn) [Compound 945725]			IC50 [1, 9]: 100 to 1000 nM; IC50 [2, 10]: ≤ 100 nM
CCc1cccc(N(C)c2cccc([C@]3(CC)C4=C(CC(C)(C)CC4=O)Nc4n[nH]cc43)c2)n1 [Compound 945726]	> 5000	1000 to 5000	
CC[C@]1(c2cccc(-c3cnn(C)c3C)c2)C2=C(CC(C)(C)NC2=O)Nc2n[nH]c(C)c21 [Compound 945727]			IC50 [1, 7]: > 5000 nM; IC50 [2, 8]: > 5000 nM
CC[C@@]1(c2cccc(-c3ccncc3O)c2)C2=C(CC(C)(C)CC2=O)Nc2n[nH]cc21 [Compound 945728]	> 5000	1000 to 5000	
CC1(C)CC(=O)C2=C(C1)Nc1n[nH]cc1[C@@]21CCC[C@@H](C#N)C1 [Compound 945906]	100 to 1000	100 to 1000	
CCC1(c2cccc(C(F)(F)F)c2)C2=C(CC(C(C)(C)C)NC2=O)Nc2n[nH]cc21 (stereo not drawn) [Compound 945921]			IC50 [1, 7]: > 5000 nM; IC50 [2, 8]: 1000 to 5000 nM
CC[C@]1(c2cccc(C(F)(F)F)c2)C2=C(C[C@@H](C(C)(C)C)NC2=O)Nc2n[nH]cc21 [Compound 945922]			IC50 [1, 7]: 100 to 1000 nM; IC50 [2, 8]: ≤ 100 nM
CCC1(c2cccc(C(F)(F)F)c2)C2=C(CC(C(C)(C)C)NC2=O)Nc2n[nH]cc21 (stereo not drawn) [Compound 945923]			IC50 [1, 7]: > 5000 nM; IC50 [2, 8]: > 5000 nM
CCC1(c2cccc(Oc3cncnc3)c2)C2=C(CC(C)(C)CC2=O)Nc2n[nH]cc21 (stereo not drawn) [Compound 945939]	> 5000	100 to 1000	
CCC1(c2cccc(Nc3ncccn3)c2)C2=C(CC(C)(C)CC2=O)Nc2n[nH]cc21 (stereo not drawn) [Compound 945943]	100 to 1000	≤ 100	

The next lines start with results.

IC50 [1, 3] [nM]	IC50 [2, 5] [nM]	SMILES	further results
≤ 100	≤ 100	CN(C)C(=O)c1ccc(S(=O)(=O)N2CCC3(CC2)C2=C(CC(C)(C)CC2=O)Nc2n[nH]cc23)cc1 [Compound 945659]	
≤ 100	≤ 100	CC1(C)CC(=O)C2=C(C1)Nc1n[nH]cc1C21CCN(S(=O)(=O)c2ccc(Cl)c(Cl)c2)CC1 [Compound 945660]	
≤ 100	≤ 100	CC1(C)CC(=O)C2=C(C1)Nc1n[nH]cc1C21CCN(S(=O)(=O)c2ccc(Cl)cc2)CC1 [Compound 945661]	
100 to 1000	≤ 100	COc1ccc(S(=O)(=O)N2CCC3(CC2)C2=C(CC(C)(C)CC2=O)Nc2n[nH]cc23)c(C)c1C [Compound 945662]	
≤ 100	≤ 100	CCn1nccc1S(=O)(=O)N1CCC2(CC1)C1=C(CC(C)(C)CC1=O)Nc1n[nH]cc12 [Compound 945664]	
≤ 100	≤ 100	COc1ccc(F)c(S(=O)(=O)N2CCC3(CC2)C2=C(CC(C)(C)CC2=O)Nc2n[nH]cc23)c1 [Compound 945665]	
≤ 100	≤ 100	COc1ccc(S(=O)(=O)N2CCC3(CC2)C2=C(CC(C)(C)CC2=O)Nc2n[nH]cc23)cn1 [Compound 945666]	
≤ 100	≤ 100	COc1cc(S(=O)(=O)N2CCC3(CC2)C2=C(CC(C)(C)CC2=O)Nc2n[nH]cc23)ccc1Cl [Compound 945669]	
≤ 100	≤ 100	CCOc1ccc(S(=O)(=O)N2CCC3(CC2)C2=C(CC(C)(C)CC2=O)Nc2n[nH]cc23)cc1 [Compound 945670]	IC50 [1, 4]: 1000 to 5000 nM; IC50 [2, 6]: 100 to 1000 nM
≤ 100	≤ 100	Cc1ccc(S(=O)(=O)N2CCC3(CC2)C2=C(CC(C)(C)CC2=O)Nc2n[nH]cc23)s1 [Compound 945672]	IC50 [1, 4]: 100 to 1000 nM; IC50 [2, 6]: 100 to 1000 nM
≤ 100	≤ 100	CC(C)Oc1ccc(S(=O)(=O)N2CCC3(CC2)C2=C(CC(C)(C)CC2=O)Nc2n[nH]cc23)cc1 [Compound 945673]	
100 to 1000	≤ 100	Cc1cc(S(=O)(=O)N2CCC3(CC2)C2=C(CC(C)(C)CC2=O)Nc2n[nH]cc23)c(C)s1 [Compound 945674]	
≤ 100	≤ 100	CC(C)Oc1ccc(S(=O)(=O)N2CCC3(CC2)C2=C(CC(C)(C)CC2=O)Nc2n[nH]cc23)cn1 [Compound 945676]	
100 to 1000	≤ 100	Cc1cc(S(=O)(=O)N2CCC3(CC2)C2=C(CC(C)(C)CC2=O)Nc2n[nH]cc23)ccc1OC(C)C [Compound 945678]	
≤ 100	≤ 100	COc1ccc(S(=O)(=O)N2CCC3(CC2)C2=C(CC(C)(C)CC2=O)Nc2n[nH]cc23)cc1C [Compound 945680]	
